Data from ChEMBL document CHEMBL1157539, “Thousands of chemical starting points for antimalarial lead identification” (Nature, 2010).

System: Plasmodium falciparum
Assay: GSK_TCMDC: Inhibition of Plasmodium falciparum 3D7 in whole erythrocytes, using parasite LDH activity as an index of growth.
Format: functional, organism-based
Conditions: Plasmodium falciparum, 3D7

Structure (SMILES) | XC50 [nM]
Cc1cccc2nc(-c3ccc(-c4ccc(CN5CCC(C(N)=O)CC5)cc4)cc3)[nH]c12 | 932
CC(=O)N1Cc2ccccc2C1=O | 522
CC(=O)c1cccc(NC(=O)NC2CCN(CCCCCNC(=O)/C=C/c3ccc(Cl)c(Cl)c3)CC2)c1 | 835
CC(C)(C)C(=O)N1CCN(c2ccc([N+](=O)[O-])c(NC3CC3)c2)CC1 | 941
COc1cccc(-c2nc3c(N4CCN(c5ccncc5)CC4)cccc3n2CC2CCCCCN2)n1 (stereo not given) | 1060
OCC1CCN(Cc2ccc(-c3ccc(-c4nc5cc(C(F)(F)F)ccc5[nH]4)cc3)cc2)CC1 | 697
N=c1[nH]c2cccc3ccc4cccc1c4c32 | 918
COc1ccc(CNC2CCN(C)CC2)cc1-c1ccc(S(=O)(=O)NCc2cccnc2)s1 | 835
CN(C)Cc1ccc(-c2ccc3c(Nc4ccc(Oc5ccccn5)cc4)ccnc3c2)o1 | 159
COc1ccc2c(c1)CC1CN(CCCCNC(=O)c3ccc(NC(=O)c4cc(Cl)cc(Cl)c4)cc3)CCN1C2 (stereo not given) | 767
Cc1cc(NC(=O)[C@H](CC2CCCCC2)Nc2ccc(C#N)c3ccccc23)ccc1F | 684
Cc1cccc(C)c1N1CCN(C2CCC(NC(=O)c3cc4ccccc4[nH]3)CC2)CC1 (stereo not given) | 601
Cc1ccc(Nc2nc3cc(Nc4ccnc(Nc5ccc(CS(C)(=O)=O)cc5)n4)ccc3o2)cc1 | 765
O=[N+]([O-])c1ccccc1/C=N/Nc1ccnc2cc(Cl)ccc12 | 876
CNCc1ccc(-c2ccc3ccnc(N)c3c2)cc1 | 262
CC(C)C1C(O)=C(c2ccc3ccccc3c2)C(=O)N1Cc1cccc(F)c1 (stereo not given) | 812
O=C(Nc1ccc(Cn2ncc(N3CCCNCC3)c(Cl)c2=O)cc1)Nc1cc(Cl)cc(Cl)c1 | 866
COc1ccc2nc(C)cc(Nc3ccc(Oc4ccc(Cl)cc4)c(Cl)c3)c2c1 | 191
CC(=O)Nc1ccc(S(=O)(=O)Nc2ccc(Nc3nc(C)cc(N4CCCCC4)n3)cc2)cc1 | 779
CS(=O)(=O)NCCCNCc1cccc(-c2ccc(-c3nc4cc(C(F)(F)F)ccc4[nH]3)cc2)c1 | 996
N#Cc1ccc(N(CCOC(=O)c2ccccc2)Cc2ccccc2C(F)(F)F)cc1C(F)(F)F | 921
COc1ccc(C2C(C(=O)Nc3cc(OC)c(OC)c(OC)c3)c3cc(OC)c(OC)cc3C(=O)N2C)cc1 (stereo not given) | 801
COc1ccc2nccc([C@@H](O)CN3CCC(NC(=O)/C=C/c4cc(F)cc(NC(C)=O)c4)CC3)c2c1 | 183
CC(C)(C)CCN1CCC(CNC(=O)c2cc(-c3cccc(C(F)(F)F)c3)cs2)C1 (stereo not given) | 887

Structure (SMILES) | XC50 [nM]
CC(C)Cn1c(Sc2ccc(C#N)c([N+](=O)[O-])c2)nnc1-c1ccccc1 | 1090
CCN(CC)CCOC(=O)c1ccc(NC(=O)c2cc(-c3ccc(C)cc3)nc3ccccc23)cc1 | 779
O=S1(=O)NC2(CCN(CCc3ccc(Cl)cc3)CC2)Nc2cc(F)cc(F)c21 | 1460
O=C(Nc1ccc(Br)cc1)c1cc(Br)ccc1NS(=O)(=O)c1cc(C(F)(F)F)cc(C(F)(F)F)c1 | 885
O=C(Nc1cccc(CN2CCCN(Cc3ccc(O)cc3)CC2)c1)c1cc2ccccc2s1 | 362
O=C(CN1CCN(C(=O)c2ccco2)CC1)Nc1ccc(Br)cc1Cl | 773
O=c1c(Br)c(C(F)(F)F)[nH]c2ccc(Oc3ccccc3)cc12 | 1100
Cc1[nH]c2ccccc2c1C=NNc1nc(=Nc2ccccc2)[nH]c(=Nc2ccccc2)[nH]1 | 926
O=C(/C=C/c1ccc(Cl)c(Cl)c1)NCCCCCCN1CCN(C(=O)Nc2ccc(F)c(Cl)c2)CC1 | 938
CNCCNCc1cccc(-c2ccc(-c3nc4cccc(C)c4[nH]3)cc2)c1 | 798
COc1ccc2cc(C(=O)Nc3ccc4c(c3)CCN(C3CCC3)CC4)ccc2c1 | 838
O=C(Nc1ccc(OC2CCN(Cc3ccccc3)C2)c(Cl)c1)c1ccc(F)cc1 (stereo not given) | 791
CCOC(=O)c1cc(C(=O)NCCCCN2CCC(c3ccc(CC)cc3OCC)CC2)ccc1-c1ccc(C(F)(F)F)cc1 | 615
Cc1nnc(NC(=O)c2cn(-c3ccccc3)nc2-c2ccccc2C)o1 | 565
CCOC(=O)c1ccc(NC(=O)N[C@H]2CCN(CCCCCNC(=O)/C=C/c3ccc(Cl)c(Cl)c3)C2)cc1 | 735
O=C(/C=C/c1ccc(Cl)c(Cl)c1)NCCCCN1CCCN(C(=O)Nc2cc(Cl)cc(Cl)c2)CC1 | 949
O=C(NC1CCN(Cc2ccccc2)CC1)c1ccc(-c2nc3cc(Cl)c(Cl)cc3[nH]2)c(F)c1 | 736
Cc1cccc2c3c([nH]c12)C1(CCN(Cc2ccccc2)CC1)NC(C(=O)NCc1ccccc1)C3 (stereo not given) | 1370
CCNC(=O)Nc1ccc(-c2cnc(N)c(-c3nc4ccc(OC)cc4[nH]3)c2)cc1 | 499
CCNc1cc(C(=O)N[C@@H](Cc2ccccc2)[C@H](O)CN[C@H](C)C(C)(C)C)cc(N2CCCCS2(=O)=O)c1 | 820
N=C(N)NC(=O)Nc1ccc(Cl)c([N+](=O)[O-])c1 | 762
Oc1ccc(CN2CCN(CCOC(c3ccccc3)c3ccc(Cl)cc3)CC2)cc1Cl (stereo not given) | 858
CCCCNC(=N)c1ccc(OCCCCCOc2ccc(C(=N)NCCCC)cc2)cc1 | 114
COc1ccc2[nH]c(C)cc(=NN=Cc3cccc(F)c3)c2c1 | 285

Structure (SMILES) | XC50 [nM]
Cc1ccc(C)c(C2CCN(CCCCNC(=O)c3ccc(NC(=O)c4ccc(Cl)cc4)cc3)CC2)c1 | 847
O=C(/C=C/c1ccc(Cl)c(Cl)c1)NCC1CCC(CN2CCC(c3c[nH]c4ccccc34)CC2)CC1 (stereo not given) | 356
Clc1ncnc2scc(-c3ccc(Br)cc3)c12 | 886
Cc1ccc(NC(=O)c2ccc(CN3CCCN(Cc4cccc(O)c4)CC3)cc2)cc1F | 591
CCC(CC)N1CCN(CC(=O)Nc2ccc([N+](=O)[O-])cc2C(=O)Nc2cccc(OC)c2)CC1 | 866
O=C(/C=C/c1ccc(Cl)c(Cl)c1)NC1CCN(CCNC(=O)c2cccc(Cl)c2)CC1 | 550
O=C(Nc1ccc(C(=O)Oc2ccc3ccccc3c2)cc1)N[C@@H](Cc1ccc(O)cc1)C(=O)NC1CCN(Cc2ccc(O)cc2)C1 (stereo not given in full) | 1060
Fc1ccc2[nH]c(-c3ccc(-c4ccc(CN5CCN(CCN6CCOCC6)CC5)cc4)s3)nc2c1 | 147
O=C(c1ccc(-c2cnc3[nH]cc(-c4ccc(C(=O)N5CCOCC5)cc4)c3c2)cc1)N1CCOCC1 | 1000
COc1ccc2nccc([C@@H](O)CN3CCC(NC(=O)CCC(=O)c4cc(C(C)(C)C)ccc4OC)CC3)c2c1 | 846
COc1ccc2nccc([C@@H](O)CN3CCC(NCCOc4c(C)cccc4F)CC3)c2c1 | 347
CC(C)S(=O)(=O)N1CCN(Cc2ccc3c(c2)nc(NC(=O)c2ccsc2)n3C[C@H](O)c2ccccc2)CC1 | 271
COc1ccccc1C1CCN(C2CCC(NC(=O)/C=C/c3ccc(F)c(F)c3)CC2)CC1 (stereo not given) | 1320
Cc1cc2c(cc1C(F)(F)F)N(C(=O)Nc1cc(OCCN(C)C)cc(C(F)(F)F)c1)CC2 | 708
COc1cc(OC)c(NC(=O)COc2ccc(C)cc2)cc1Cl | 688
CC1CN(c2ccc3occ(C(=O)Nc4ccc(-c5ccncc5)c(Cl)c4)c3c2)CC(C)N1C (stereo not given) | 855
CC(C)CCN1CCCN(Cc2cccc(NC(=O)c3ccc(Cl)c(Cl)c3)c2)CC1 | 1020
CN(C)CCOc1cc(NC(=O)Nc2ccc(-c3ccccc3)cc2)ccc1I | 595
Cc1cc(=O)c(-c2ccc(Oc3ccc(C(F)(F)F)cc3)cc2)c(C)n1O | 604
COc1ccc(C2CC(=O)C3=C(C2)NC(C)=C(C(=O)OC(C)C)C3c2ccc(O)cc2)cc1OC (stereo not given) | 278
CC(C)CCCC(C)(C)NC[C@@H](O)[C@H](Cc1ccccc1)NC(=O)c1cccc(CCC2CC2)c1 | 796
CCc1ccc(C2=Nn3c(nnc3-c3cccs3)SC2)cc1 | 1290
OCCc1ccc(Nc2nccc(-c3nnc4ccccn34)n2)cc1 | 901
Cc1cc(O)c2c3c1C(=O)C=C1C3c3c(c(O)cc(O)c3C(=O)C1(C)C)C2=O (stereo not given) | 1680

Structure (SMILES) | XC50 [nM]
CN1CCCC(CN2CCN(Cc3ccc(-c4cccc(-c5nc6ccccc6[nH]5)c4)cc3)CC2)C1 (stereo not given) | 132
CC(=O)c1ccc(NC(=O)Nc2ccc(N(C)c3ccnc(NC4CC4)n3)cc2)cc1 | 805
COc1cc(NC(=O)NC(CCN2CCC3(CCc4ccccc43)CC2)c2ccc(Cl)c(Cl)c2)cc(OC)c1OC (stereo not given) | 679
CC(C)CNc1c2c(nc3cnn(-c4c5c(nc6cn[nH]c46)CCCC5)c13)CCCC2 | 795
COc1ccc(-c2ccc(NC(=O)c3ccc(Cl)cc3)cc2)cc1CN1CCN(C)CC1 | 823
O=C(NC1CCCc2ccccc21)C1CCCN(C(=O)c2ccc(O)c(-c3ccc(Cl)c(Cl)c3)c2)C1 (stereo not given) | 1140
Cc1cc2nc(-c3ccc(C(=O)NCc4cccc(F)c4)cc3)[nH]c2cc1C | 962
CCNc1cc(CCCC(=O)OCC)nc(Nc2ccc(C)cc2)n1 | 771
O=C(Nc1ccc(Br)cc1)c1cc(Br)ccc1NS(=O)(=O)c1ccc(C(F)(F)F)cc1 | 180
O=C(/C=C/c1ccccc1O)N1CCC(CCN2CCC(c3c[nH]c4ccccc34)CC2)CC1 | 1340
O=C(NCc1ccccc1)c1nn(CCCN2CCC3(CC2)C(=O)NCN3c2ccccc2)cc1-c1ccc(Cl)c(Cl)c1 | 1050
O=C(NCc1ccccc1)c1ncn(CCCN2CCC(N3CCCC3)CC2)c1-c1ccc(Cl)c(Cl)c1 | 1120
CCOC(=O)c1nc2ccc(SC3CCCCC3)cn2c1Br | 1060
CN1CCN(CCCN(Cc2cccc(-c3cccc(CNCCc4ccccc4)c3)c2)C(=O)Nc2ccccc2)CC1 | 579
Cc1cc(N2CCN(C3CCCCC3)CC2)nc2cccc(O)c12 | 701
CN1CCN(CC(=O)Nc2ccc(-c3ccc(-c4nc5ccccc5[nH]4)s3)cc2)CC1 | 299
N#Cc1cccc(C(=O)Nc2cccc(-c3ccc(CN4CCCC4)cc3)c2)c1 | 695
CC(C)c1ccc(NC(=O)NCCCC2CCCN(CCCCCNC(=O)/C=C/c3ccc(Cl)c(Cl)c3)C2)cc1 (stereo not given) | 957
COc1ccc2nccc([C@@H](O)CN3CCC(NCc4nc5ccc(F)cc5[nH]4)CC3)c2c1 | 732
Cc1cccc2nc(-c3ccc(-c4ccc(CNCc5cccc(N)c5)cc4)cc3)[nH]c12 | 565
COCCNCc1cccc(-c2ccc(CN(C(=O)NC3CCCCC3)C3CCN(Cc4ccccc4)CC3)cc2)c1 | 759
COc1cccc(-c2csc(C(=O)NCC3CCN(Cc4ccc(C(C)C)cc4)C3)c2)c1 (stereo not given) | 1390
COc1ccc2ncc(OC)c(CCN3CC[C@@H](NCc4ccc5c(n4)NC(=O)CS5)[C@H](O)C3)c2n1 | 831
